Active and inactive are the calls of the source.
Experiments:
[1] = inhibitors of intracellular T. cruzi replication, confirmation, NIH3T3 host cells, beta-gal luminescence (AID 2044); type: functional, cell-based;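 note: intracellular parasites grown in NIH/3T3 mouse fibroblasts as host cells; luminescent beta-galactosidase reporter signal from transgenic T. cruzi replicating inside host cells; inhibitors lower the luminescence signal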
[2] = cytotoxicity toward NIH3T3 fibroblasts, dose response, counter-screen, cell-based, ATP luminescence, mouse fibroblasts (AID 2010); type: functional;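 note: cells exposed to compound for about 90 hours before reading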
[3] = Luminescence Cell-Based Secondary HTS screen to identify cytotoxic compounds of NIH3T3 cells. [Related pubchem assays: 1885, 1968 ]; type: functional
[4] = target: T1, Probable nicotinate-nucleotide adenylyltransferase (Staphylococcus aureus (strain N315), UniProt P65502); type: functional, Staphylococcus aureus subsp. aureus N315; settings: read-out: IC50_Mean;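 for IC50 Mean: confirmatory dose-response retesting of NadD inhibitor hits first found in an ultra-high-throughput screen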
[5] = target: Genome polyprotein (Hepatitis C virus, UniProt Q2Q167); test: HCV core protein dimerization inhibitors, dose response, biochemical, TR-FRET (AID 2159); parameters: species or system Hepacivirus hominis;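 note: blocks dimerization of HCV core protein measured by TR-FRET between tagged core106 pairs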
[6] = target: T1, Probable nicotinate-nucleotide adenylyltransferase; type: functional, Staphylococcus aureus subsp. aureus N315
[7] = target: Cytochrome P450 2C19 (Homo sapiens, UniProt P33261); test: qHTS Assay for Inhibitors and Substrates of Cytochrome P450 2C19. [Related pubchem assays: 410 ]; type: ADME; settings: read-out: Potency
[8] = target: Estrogen receptor beta (Homo sapiens, UniProt Q92731);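 note: recombinant ER-beta bound to coactivator SRC1 peptide in presence of estradiol agonist; inhibitors block coactivator peptide binding and lower the FRET signal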
[9] = target: T2, Oxysterols receptor LXR-beta (Homo sapiens, UniProt P55055); type: functional, cell-based;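 note: Cell-based luminescence dose-response assay of agonist activity at LXR, run as a confirmatory counterscreen to a daf-12 agonist screen; HEK293 cells with Gal4-LXR fusion and GAL4-driven luciferase reporter; agonist potency from rising luciferase signal of a Gal4-LXR reporter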
T2 sequence (P55055 whole entry): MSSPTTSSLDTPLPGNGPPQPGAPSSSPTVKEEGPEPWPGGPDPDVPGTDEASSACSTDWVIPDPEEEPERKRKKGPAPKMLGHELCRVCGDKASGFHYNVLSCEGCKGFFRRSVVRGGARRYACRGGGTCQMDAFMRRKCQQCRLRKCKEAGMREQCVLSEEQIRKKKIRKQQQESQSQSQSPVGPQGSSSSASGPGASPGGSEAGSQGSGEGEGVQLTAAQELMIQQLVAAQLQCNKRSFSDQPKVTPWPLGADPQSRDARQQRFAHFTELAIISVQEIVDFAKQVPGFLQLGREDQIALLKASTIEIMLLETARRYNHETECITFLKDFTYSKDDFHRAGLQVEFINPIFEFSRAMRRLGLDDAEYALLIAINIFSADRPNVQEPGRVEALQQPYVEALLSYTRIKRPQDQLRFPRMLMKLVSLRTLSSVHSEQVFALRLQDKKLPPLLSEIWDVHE

[10] = Luminescence Cell-Based Dose Response HTS to Identify Inhibitors of 5'UTR Stem-Loop Driven Prion Protein mRNA Translation in H4 Neuroglioblastoma Cells. [Related pubchem assays: 1827 (Project Summary), 1813 (Primary HTS)]; type: functional
[11] = inhibitors of SNCA 5'UTR-driven reporter translation, confirmation, H4 neuroglioma cells, luminescence (AID 1988); type: functional, cell-based
[12] = Luminescence-based cell-based high throughput dose response assay to identify activators of the DAF-12 from the parasite S. stercoralis (ssDAF-12).; type: functional
[13] = target: T3, RNA-binding protein pos-1 (Caenorhabditis elegans, UniProt G5EF15); test: inhibitors of POS-1/mex-3 RNA binding, dose response, biochemical, fluorescence polarization (AID 1964);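 note: purified POS-1 fused to maltose binding protein made in E. coli; potency of compounds blocking POS-1 binding to fluorescent RNA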
T3 sequence (G5EF15 whole entry): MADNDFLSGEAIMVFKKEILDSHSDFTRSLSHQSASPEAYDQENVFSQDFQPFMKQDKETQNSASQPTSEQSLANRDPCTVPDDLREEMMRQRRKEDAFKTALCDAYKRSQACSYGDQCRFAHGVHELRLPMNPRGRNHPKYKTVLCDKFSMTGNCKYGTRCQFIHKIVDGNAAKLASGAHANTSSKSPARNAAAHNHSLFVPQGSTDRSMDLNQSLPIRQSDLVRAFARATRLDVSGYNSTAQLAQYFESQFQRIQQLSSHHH

[14] = target: T4, Zinc finger protein mex-5 (Caenorhabditis elegans, UniProt Q9XUB2); test: MEX-5/TCR-2 RNA interaction inhibitors, dose response, biochemical, C. elegans, fluorescence polarization (AID 1960)
T4 sequence (Q9XUB2 whole entry): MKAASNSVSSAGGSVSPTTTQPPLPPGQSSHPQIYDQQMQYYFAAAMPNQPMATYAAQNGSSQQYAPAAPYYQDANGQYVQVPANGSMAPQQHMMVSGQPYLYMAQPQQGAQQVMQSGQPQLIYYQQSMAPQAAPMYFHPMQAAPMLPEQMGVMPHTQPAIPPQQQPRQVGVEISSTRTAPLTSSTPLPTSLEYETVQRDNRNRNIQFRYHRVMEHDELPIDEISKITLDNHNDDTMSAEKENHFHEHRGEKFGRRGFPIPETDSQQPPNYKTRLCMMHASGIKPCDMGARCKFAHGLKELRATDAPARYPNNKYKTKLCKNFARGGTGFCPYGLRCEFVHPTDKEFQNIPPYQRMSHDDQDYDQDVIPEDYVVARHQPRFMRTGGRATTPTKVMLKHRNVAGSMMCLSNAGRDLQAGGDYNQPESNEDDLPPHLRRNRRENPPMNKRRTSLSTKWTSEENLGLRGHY

[15] = cells
[16] = half-maximal inhibitory concentration for glucagon-like peptide-1 release, STC-1 cell line, dose-response (AID 1117345); type: functional, cell-based
[17] = Glucagon-like peptide 1 release potency, NCI-H716 cell line, dose-response, half-maximal inhibitory concentration (AID 1117344); type: functional, cell-based
[18] = PAX5 activity inhibitors, dose response, selectivity assay for PAX8 inhibitor project, cell-based, plate reader, dry powder samples (AID 743047); type: functional;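 note: HEK293 cells carrying a Pax5 driven CD19 promoter luciferase reporter; potency of inhibitors that lower reporter luminescence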
[19] = cytotoxicity in COV362 ovarian cancer cells, dose response, cytotoxicity control for PAX8 inhibitor project, cell-based, plate reader, dry powder, SA12 (AID 743144); type: functional
[20] = target: Paired box protein Pax-8 (Homo sapiens, UniProt Q06710); test: inhibitors of PAX8-driven TPO luciferase reporter, dose response, RMG-I cells, cherry-pick (AID 687027); type: functional, cell-based;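 note: luciferase reporter driven by Pax8 target thyroperoxidase promoter measured by SteadyGlo luminescence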
[21] = PAX2 cell-based inhibition, dose response, selectivity assay for PAX8 inhibitor project, plate reader, dry powder samples (AID 743048); type: functional;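 note: HEK293 cells carrying a WT1 promoter luciferase reporter driven by expressed Pax2; potency is for inhibition of Pax2 driven reporter signal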
[22] = cytotoxicity in COV434 cells, dose response, cytotoxicity control for PAX8 inhibitor project, cell-based, plate reader, dry powder, SA7 (AID 743145); type: functional
[23] = NIH:OVCAR-3 ovarian cancer cell cytotoxicity, dose response, PAX8 inhibitor project, plate reader, dry powder samples (AID 743044); type: functional, cell-based
[24] = cytotoxicity in OV-90 ovarian cancer cells, dose response, PAX8 inhibitor project, cell-based, plate reader, dry powder, SA8 (AID 743149); type: functional
[25] = cytotoxicity dependent on PAX8, dose response, cell-based, plate reader, dry powder (AID 743049); type: functional
[26] = T. cruzi intracellular amastigote growth inhibition, dose response, imaging, CA-I/72 strain, bovine embryo skeletal muscle, dry powder (AID 651885); type: functional, cell-based
[27] = growth inhibition of intracellular T. cruzi, dose response, cell-based, plate reader, dry powder samples (AID 651845); type: functional
[28] = growth suppression of beta-catenin-knockout colon cells, dose response, cell-based, HCT116, human colon tumor (AID 1045); type: functional;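 note: HCT116 colon tumor cells with beta catenin knocked out; cells exposed to compound for 60 hours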
[29] = target: DNA damage-inducible transcript 3 protein (Mus musculus, UniProt P35639); type: functional, Cricetulus griseus
[30] = target: T5, Coagulation factor XII (Homo sapiens, UniProt P00748); type: functional;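 note: activated factor XIIa alpha cleaving a fluorogenic AMC peptide substrate; inhibitor potency from loss of enzyme activity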
T5 sequence (P00748 whole entry): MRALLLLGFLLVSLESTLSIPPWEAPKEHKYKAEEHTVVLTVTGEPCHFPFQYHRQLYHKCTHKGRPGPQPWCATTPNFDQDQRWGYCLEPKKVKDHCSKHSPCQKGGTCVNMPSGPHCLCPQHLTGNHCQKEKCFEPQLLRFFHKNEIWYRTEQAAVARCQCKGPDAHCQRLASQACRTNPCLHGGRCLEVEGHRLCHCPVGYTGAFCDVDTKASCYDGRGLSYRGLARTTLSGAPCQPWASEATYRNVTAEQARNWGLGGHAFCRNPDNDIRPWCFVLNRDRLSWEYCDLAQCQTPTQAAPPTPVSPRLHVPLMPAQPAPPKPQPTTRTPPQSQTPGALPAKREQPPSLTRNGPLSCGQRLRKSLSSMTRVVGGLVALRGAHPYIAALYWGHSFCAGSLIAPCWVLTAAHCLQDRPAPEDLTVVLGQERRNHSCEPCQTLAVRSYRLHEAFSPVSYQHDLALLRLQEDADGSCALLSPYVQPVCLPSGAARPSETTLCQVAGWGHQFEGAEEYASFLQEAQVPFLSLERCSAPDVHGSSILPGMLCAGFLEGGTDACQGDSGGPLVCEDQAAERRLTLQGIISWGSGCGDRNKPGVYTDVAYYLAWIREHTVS

[31] = target: T6, Mannose-6-phosphate isomerase (Homo sapiens, UniProt P34949); test: human PMI inhibitors, high substrate, primary screen, biochemical, fluorescence intensity, high mannose 6-phosphate (AID 1220)
T6 sequence (P34949 whole entry): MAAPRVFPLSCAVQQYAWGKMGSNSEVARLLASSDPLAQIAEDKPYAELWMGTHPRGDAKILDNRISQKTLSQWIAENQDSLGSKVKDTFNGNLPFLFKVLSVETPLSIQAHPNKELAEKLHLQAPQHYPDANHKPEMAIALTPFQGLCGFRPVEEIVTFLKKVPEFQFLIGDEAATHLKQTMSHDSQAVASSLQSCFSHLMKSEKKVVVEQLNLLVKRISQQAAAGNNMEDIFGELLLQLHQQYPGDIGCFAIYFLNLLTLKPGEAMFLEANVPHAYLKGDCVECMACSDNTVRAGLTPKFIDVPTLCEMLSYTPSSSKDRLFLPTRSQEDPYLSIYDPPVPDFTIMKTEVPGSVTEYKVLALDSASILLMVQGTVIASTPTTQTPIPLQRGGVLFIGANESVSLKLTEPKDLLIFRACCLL

[32] = growth suppression of PTEN-null colon cells, dose response, cell-based, HCT116 PTEN knockout (AID 1047); type: functional;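 note: HCT116 colon tumor cells with PTEN knocked out; cells exposed to compound for 60 hours before readout; potency for loss of cell viability measured by luminescence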
[33] = target: 14-3-3 protein gamma (Homo sapiens, UniProt P61981); test: modulators of 14-3-3 gamma client binding – dose response (AID 711); type: functional
[34] = target: RNA-editing ligase 1, mitochondrial (Trypanosoma brucei brucei, UniProt P86926); test: TbREL1 ligase inhibitors, dose response, biochemical, fluorescence, Trypanosoma brucei (AID 1117295); type: functional
[35] = P. falciparum Dd2 growth inhibitors, dose response, SYBR Green, dry powder samples, set 9 (AID 1159568); type: functional, cell-based

Sequence of RNA-editing ligase 1, mitochondrial (P86926 whole entry): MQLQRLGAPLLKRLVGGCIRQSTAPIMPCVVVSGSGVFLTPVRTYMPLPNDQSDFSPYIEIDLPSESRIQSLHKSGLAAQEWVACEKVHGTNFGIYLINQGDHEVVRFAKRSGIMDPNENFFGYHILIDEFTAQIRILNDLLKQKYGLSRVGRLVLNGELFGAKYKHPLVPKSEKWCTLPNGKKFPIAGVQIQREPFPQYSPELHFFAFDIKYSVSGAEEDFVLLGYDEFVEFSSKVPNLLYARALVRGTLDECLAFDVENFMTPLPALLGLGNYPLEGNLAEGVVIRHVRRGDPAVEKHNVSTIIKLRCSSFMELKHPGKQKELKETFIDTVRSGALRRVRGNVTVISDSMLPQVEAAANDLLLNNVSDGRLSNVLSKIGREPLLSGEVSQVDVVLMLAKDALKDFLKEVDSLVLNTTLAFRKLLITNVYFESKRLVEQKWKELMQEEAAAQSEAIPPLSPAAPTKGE
Sequence of Cytochrome P450 2C19 (P33261 whole entry): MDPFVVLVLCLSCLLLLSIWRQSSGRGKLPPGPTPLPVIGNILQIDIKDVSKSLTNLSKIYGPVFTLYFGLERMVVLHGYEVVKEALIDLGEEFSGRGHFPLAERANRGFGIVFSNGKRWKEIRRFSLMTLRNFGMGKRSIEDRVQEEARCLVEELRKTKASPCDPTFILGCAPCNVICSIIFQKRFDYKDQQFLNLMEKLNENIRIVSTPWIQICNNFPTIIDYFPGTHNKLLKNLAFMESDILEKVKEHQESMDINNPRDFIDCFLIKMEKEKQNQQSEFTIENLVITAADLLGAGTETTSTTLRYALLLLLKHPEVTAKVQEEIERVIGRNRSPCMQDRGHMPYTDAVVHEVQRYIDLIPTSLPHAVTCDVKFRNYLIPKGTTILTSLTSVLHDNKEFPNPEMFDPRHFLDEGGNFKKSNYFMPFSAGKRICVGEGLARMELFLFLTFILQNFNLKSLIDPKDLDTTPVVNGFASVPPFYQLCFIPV
Sequence of Paired box protein Pax-8 (Q06710 whole entry): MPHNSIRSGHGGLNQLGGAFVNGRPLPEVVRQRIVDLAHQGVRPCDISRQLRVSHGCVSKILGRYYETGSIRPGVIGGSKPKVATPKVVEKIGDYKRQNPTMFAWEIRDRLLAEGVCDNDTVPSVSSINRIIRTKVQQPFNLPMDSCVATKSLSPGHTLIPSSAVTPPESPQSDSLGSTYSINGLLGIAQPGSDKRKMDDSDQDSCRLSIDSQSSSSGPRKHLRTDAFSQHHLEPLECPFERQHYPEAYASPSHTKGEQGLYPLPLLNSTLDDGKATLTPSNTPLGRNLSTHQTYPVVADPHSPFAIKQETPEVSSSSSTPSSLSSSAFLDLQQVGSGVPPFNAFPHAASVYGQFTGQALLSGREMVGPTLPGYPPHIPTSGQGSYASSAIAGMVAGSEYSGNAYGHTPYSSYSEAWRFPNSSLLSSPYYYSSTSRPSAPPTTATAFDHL
Sequence of Genome polyprotein (Q2Q167 whole entry): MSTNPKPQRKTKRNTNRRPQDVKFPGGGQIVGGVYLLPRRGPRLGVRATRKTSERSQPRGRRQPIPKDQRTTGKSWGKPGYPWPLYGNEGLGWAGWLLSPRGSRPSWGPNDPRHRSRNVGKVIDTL
T1 sequence (P65502 whole entry): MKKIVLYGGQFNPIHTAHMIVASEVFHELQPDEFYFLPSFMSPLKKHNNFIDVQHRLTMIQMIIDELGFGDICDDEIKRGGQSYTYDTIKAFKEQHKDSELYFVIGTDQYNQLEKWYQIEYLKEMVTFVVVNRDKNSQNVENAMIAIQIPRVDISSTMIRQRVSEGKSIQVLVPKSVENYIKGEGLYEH
Sequence of Estrogen receptor beta (Q92731 whole entry, the tested form may be a part): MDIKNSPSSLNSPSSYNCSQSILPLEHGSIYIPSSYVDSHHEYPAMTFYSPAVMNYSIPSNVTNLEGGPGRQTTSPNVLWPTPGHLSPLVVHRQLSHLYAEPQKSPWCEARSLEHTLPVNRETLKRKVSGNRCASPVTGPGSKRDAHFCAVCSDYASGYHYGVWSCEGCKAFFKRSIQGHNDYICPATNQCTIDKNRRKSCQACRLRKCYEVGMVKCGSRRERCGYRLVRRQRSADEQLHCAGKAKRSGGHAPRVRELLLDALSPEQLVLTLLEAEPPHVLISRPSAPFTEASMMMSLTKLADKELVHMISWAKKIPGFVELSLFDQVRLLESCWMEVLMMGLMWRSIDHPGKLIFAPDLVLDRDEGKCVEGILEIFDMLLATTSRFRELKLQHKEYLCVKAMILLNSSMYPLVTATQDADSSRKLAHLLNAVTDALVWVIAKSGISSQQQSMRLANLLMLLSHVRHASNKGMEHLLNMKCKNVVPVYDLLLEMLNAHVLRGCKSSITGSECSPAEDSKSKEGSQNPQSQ
Sequence of 14-3-3 protein gamma (P61981 whole entry): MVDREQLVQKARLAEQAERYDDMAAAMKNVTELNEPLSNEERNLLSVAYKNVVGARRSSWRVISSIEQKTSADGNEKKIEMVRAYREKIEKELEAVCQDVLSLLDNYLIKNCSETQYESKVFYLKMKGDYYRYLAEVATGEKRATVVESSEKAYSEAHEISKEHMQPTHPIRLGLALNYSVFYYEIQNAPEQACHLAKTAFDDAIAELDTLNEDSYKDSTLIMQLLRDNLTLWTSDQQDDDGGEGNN
Sequence of DNA damage-inducible transcript 3 protein (P35639 whole entry): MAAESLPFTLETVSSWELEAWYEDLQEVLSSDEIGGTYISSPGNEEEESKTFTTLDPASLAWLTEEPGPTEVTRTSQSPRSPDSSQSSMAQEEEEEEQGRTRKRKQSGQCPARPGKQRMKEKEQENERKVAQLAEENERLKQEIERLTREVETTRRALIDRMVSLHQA

COCc1cc(CN2CCCC(CNC(=O)c3ccc(F)cc3)C2)ccc1OC (stereo unspecified)
EC50 [1]: 0.118 µM (active)
EC50 [2]: > 60 µM (not active)
EC50 [3]: > 195 µM (not active)

Cc1ccc(C2CC(c3cccs3)=NN2C(=O)CSc2nc(=O)n3ccc(C)cc3n2)cc1 (stereo unspecified)
IC50 [4]: 25.4 µM (active)
IC50 [5]: > 49.8 µM (not active)
EC50 [1]: 2.54 µM (active)
IC50 [6]: 5.52 µM (active)
EC50 [2]: > 60 µM (not active)

O=C(CCc1ccc(O)cc1)c1c(O)cc(O)cc1O[C@@H]1O[C@@H](CO)[C@@H](O)[C@@H](O)[C@H]1O
AC50 [7]: 6.31 µM (inconclusive)

CCC(=O)Nc1ccc(C(=O)Cn2nc(C(=O)O)c3ccccc3c2=O)cc1
IC50 [8]: 5.09 µM (active)

O=[N+]([O-])c1ccc(Cl)c2c1C1C=CCC1C(c1ccccn1)N2 (stereo unspecified)
IC50 [5]: > 49.8 µM (not active)

COc1ccc(OC2C=CC(C#Cc3ccc(Br)cc3)OC2CO)c(C(C)(C)C)c1 (stereo unspecified)
AC50 [7]: 3.16 µM (inconclusive)

O=C1c2ccccc2C(=O)C1c1ccc2ccccc2n1
EC50 [9]: > 67.5 µM (inactive)
EC50 [10]: 7.02 µM (active)
EC50 [11]: 3.11 µM (active)
IC50 [12]: > 67.5 µM (inactive)
EC50 [13]: > 300 µM (not active)
EC50 [14]: > 300 µM (not active)
EC50 [15]: > 67.5 µM (inactive)

COc1cc(Nc2c(C#N)cnc3cc(OCCCN4CCN(C)CC4)c(OC)cc23)c(Cl)cc1Cl
IC50 [16]: > 40 µM (inactive)
IC50 [17]: 25.1 µM (inactive)

CCCC#Cc1ccc([C@@H]2[C@H](C#N)N(S(=O)(=O)c3cccc(F)c3)[C@H]2CO)cc1
AC50 [18]: 14.2 µM (active)
AC50 [19]: 35.2 µM (active)
AC50 [20]: 5.57 µM (active)
AC50 [21]: 15.6 µM (active)
AC50 [22]: 63.8 µM (active)
AC50 [23]: 31.9 µM (active)
AC50 [24]: 26.9 µM (active)
AC50 [25]: 17 µM (active)

CCCOC(C(=O)OC1CCN(C)CC1)(c1ccccc1)c1ccccc1
IC50 [16]: 23.8 µM (inactive)
IC50 [17]: > 40 µM (inactive)

Cc1ccc(S(=O)(=O)Nc2ccc3c(c2)C(=O)N([C@@H](C)CO)C[C@H](C)[C@@H](CN(C)C(=O)Nc2cccc4ccccc24)OCCCC[C@@H](C)O3)cc1
AC50 [18]: 8.21 µM (active)
AC50 [19]: 37.3 µM (active)
AC50 [20]: 4.15 µM (active)
AC50 [21]: 7.25 µM (active)
AC50 [22]: 0.0021 µM (active)
AC50 [23]: 13.3 µM (active)
AC50 [24]: 22.8 µM (active)
AC50 [25]: 18.2 µM (active)

C[C@@H]1CN([C@@H](C)CO)C(=O)c2cccc(NC(=O)c3ccncc3)c2O[C@H]1CN(C)Cc1ccccc1Cl
IC50 [26]: 0.0114 µM (active)
AC50 [27]: 0.158 µM (active)

COc1cc(C(=O)O/N=C2\C=CC(=O)C(C)=C2)cc(OC)c1OC
EC50 [28]: 3.63 µM (active)
Absolute IC50 (CHOP) [29]: 10 µM
IC50 [30]: 0.623 µM (active)
IC50 [31]: > 50 µM (not active)
EC50 [32]: 5.17 µM (active)

C/C(=N\O)C(=O)NCc1ccccn1
IC50 [33]: > 50 µM (not active)

COC(=O)C1=C(C)N(Cc2cccc(C(F)(F)F)c2)C(NCc2cccc(C(F)(F)F)c2)=NC1c1ccccc1C(F)(F)F (stereo unspecified)
IC50 [34]: > 96.6 µM (inactive)

CCC(C)NC(=O)C1CCN(S(=O)(=O)c2ccc3[nH]c(=O)oc3c2)CC1 (stereo unspecified)
IC50 [34]: 19.7 µM (inactive)

C[C@H]1CN([C@@H](C)CO)C(=O)c2cccc(NC(=O)c3ccc(-c4nccs4)cc3)c2O[C@@H]1CN(C)C(=O)Nc1ccc(C(F)(F)F)cc1
AC50 [35]: 9.87 µM (active)

CCCNC(=O)N1[C@H](C#N)[C@H](c2ccccc2-c2ccc(OC)cc2)[C@@H]1CO
AC50 [35]: 3.54 µM (active)

From ChEMBL document CHEMBL1201862, “PubChem BioAssay data set” (2004)
